Test results as given in US20220378816A1, “2-BENZYLIDENE HYDRAZINOADENOSINE COMPOUNDS HAVING A2A ADENOSINE RECEPTOR AGONISTIC ACTIVITY” (ACADEMY OF MILITARY MEDICAL SCIENCES, priority 2019, published 2022).
Where two headings read alike, the source gives them in different places.

Columns and labels:
[1] = molecular target: T1, (human) A2A adenosine receptors (Homo sapiens, UniProt P29274); test: Radioligand binding test ([3H]CGS21680 displacement, hA2A HEK-293 cell membranes); conditions: for Ki: read-out: Ki (inhibition constant)
T1 construct: purchased PerkinElmer Research Products (Boston, Mass.); host or cells: HEK-293
T1 sequence (P29274 whole entry): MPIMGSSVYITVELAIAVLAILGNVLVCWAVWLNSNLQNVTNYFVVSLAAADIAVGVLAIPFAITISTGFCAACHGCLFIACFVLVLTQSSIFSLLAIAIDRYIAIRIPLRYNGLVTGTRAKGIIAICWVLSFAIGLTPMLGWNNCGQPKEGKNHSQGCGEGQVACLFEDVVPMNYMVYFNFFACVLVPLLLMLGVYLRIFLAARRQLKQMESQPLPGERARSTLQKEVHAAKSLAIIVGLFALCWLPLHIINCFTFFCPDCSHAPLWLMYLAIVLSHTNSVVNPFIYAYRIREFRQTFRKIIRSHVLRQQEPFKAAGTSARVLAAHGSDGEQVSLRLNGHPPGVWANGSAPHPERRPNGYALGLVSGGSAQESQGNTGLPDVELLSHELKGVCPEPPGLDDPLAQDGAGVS
Description: Cell membranes stably transfected with (human) A2A adenosine receptors were prepared in HEK-293 cells. The cell membranes were obtained from PerkinElmer Research Products (Boston, Mass.).
The A2A adenosine receptors used were all expressed in the cell membranes. […] (final 25 nM) was added to the diluted cell membrane, and mixed well. 50 μL of the prepared dilution solution of cell membrane was transferred to the 384-well Opti-plate containing compound and incubated at 25° C. for 90 minutes. 100 μL of 0.5% Polyethyleneimine solution (PEI) was added to […]-96 GF/B filter plate, and soaked for 90 minutes at 4° C., then 500 μL of washing buffer/well (50 mM Tris-HCl pH 7.4, 154 mM NaCl) was transferred with Cell Harvester to wash the […]-96 GF/B filter plate twice. The mixed system in the Opti-plate was transferred to the washed […]-96 GF/B filter plate, 500 μL of washing buffer/well (50 mM Tris-HCl pH 7.4, 154 mM NaCl) was used to wash the […]-96 GF/B filter plate 9 times. Incubation was performed in 37° C. incubator for 3 minutes. 40 μL of ULTIMA GOLD scintillation solution (Perkin Elmer, Cat #77-16061) was added to each well, CPM (count per minute) value was read by a MicroBeta liquid scintillation counter (PerkinElmer).

[2] = molecular target: human adenosine receptor A2A (Homo sapiens, UniProt P29274); test: Adenosine receptor A2A cAMP test (LANCE Ultra cAMP, hADORA2A-HEK293 cells); format: cell-based; conditions: for hA2AAR agonist function: cAMP test
Sequence of human adenosine receptor A2A (P29274 whole entry): as above
From the text: Experimental reagents and consumables: DMEM/F12, G418, Penicillin-Streptomycin, Versene Solution, HEPES, Hank's Buffered Saline Solution, PBS (pH 7.4, 1×, sterile), FBS, BSA Stabilizer 7.5%, Rolipram, NECA were separately purchased from Gibico, Hyclone and Sigma. LANCE® Ultra cAMP kit (Eu-cAMP tracer, Ulight-anti-cAMP reagent, cAMP detection buffer) and hADORA2A-HEK293 cells were purchased from PerkinElmer Research Products (Boston, Mass.). All other reagents were of analytical grade and obtained from commercial sources. 384-well polypropylene microplate and 384-well solid white plate were purchased from Labcyte and Corning, respectively.
The cells stably expressing human adenosine receptor A2A (hADORA2A-HEK293 cells) were cultured in DMEM/F12 medium containing 10% FBS, 1×Penicillin-Streptomycin and 400 μg/ml G418 in a 37° C. and 5% CO2 environment. Before the experiment, the cells were digested with Versene solution, and the cells were collected by centrifugation at 200 g and room temperature for 5 minutes, and finally resuspended with assay buffer (Hank's buffered saline solution, containing 5 mM HEPES, 0.1% BSA stabilizer and 10 μM Rolipram, pH 7.4). The TECAN automated liquid handling workstation was used to dilute the compound in a 384-well polypropylene microplate with DMSO to 11 concentration points in a 3-fold gradient to prepare the compound source plate, in which the 11 concentration points of the compound were 10 mM, 3.33 mM, 1.11 mM., 0.3 7mM, 0.1 2 mM, 0.041 mM, 0.013 mM, 4.57×10^−3 mM, 1.52×10^−3 mM, 5×10^−4 mM and 1.7×10^−4 mM. The Echo Acoustic Liquid Handler (Labcyte) was used to transfer the test compound from the compound source plate to an assay plate, in which the transfer volume of the compound was 10 nl/well. The hADORA2A-HEK293 cell suspension was diluted with assay buffer to 30,000 cells/ml, and the cell suspension was transferred to the assay plate at a volume of 10 μl/well (300 cells/well). The assay plate was centrifuged at 150 g for 1 minute and pre-incubated at room temperature for 30 minutes. The Eu-cAMP tracer working solution (Eu-cAMP tracer 40 μl, cAMP detection buffer 1.96 ml) (5 μl/well) was added to the assay plate, and then the Ulight-anti-cAMP working solution (13 μl of Ulight-anti-cAMP reagent and 1.95 ml of cAMP detection buffer) (5 µl/well) was added to the assay plate. The assay plate was rotated at 150 g for 30 seconds and incubated at room temperature for 30 minutes. The EnVision multimode plate reader (PerkinElmer) was used determine the level of cyclic adenosine monophosphate in the final solution (λex=320 nm, λem=665 nm & 615 nm). The EC50 (nM) value of the compound interacting with the A2A adenosine receptor to stimulate the production of cyclic adenosine monophosphate was calculated and the A2A receptor agonist titer of the compound was expressed as the EC50 (nM) value.

[3] = calculated from IC50 by Cheng and Prusoff equation, [S] 25 nM, Km […] nM

IC50 [1] | Ki [1, 3] | melting point | hA2AAR agonist function [2] | EC50 ([2]; stimulating production of cyclic AMP, hADORA2A-HEK293 cells) | Ki [1] | Structure (SMILES)
2840 nM | 1330 nM | 126 °C |  |  |  | CC(=O)Nc1ccc(/C=N/Nc2nc(N)c3ncn([C@@H]4O[C@H](CO)[C@@H](O)[C@H]4O)c3n2)cc1 [Compound 1, N-{4-{(E)-{2-{6-amino-9-[(2R,3R,4S,5R)-3,4-dihydroxy-5-(hydroxymethyl)tetrahydrofuran-2-yl]-9H-purin-2-yl}hydrazono}methyl}phenyl}acetamide]
3.9 nM | 1.8 nM | 220 °C | shown as hA2AAR agonists | 0.64 nM |  | Nc1nc(N/N=C/c2ccc(OCc3ccccc3)c(OCc3ccccc3)c2)nc2c1ncn2[C@@H]1O[C@H](CO)[C@@H](O)[C@H]1O [Compound 2, (2R,3R,4S,5R)-2-{6-amino-2-{2-[(E)-3,4-bis(benzyloxy)benzylidene]hydrazino}-9H-purin-9-yl}-5-(hydroxymethyl)tetrahydrofuran-3,4-diol]
> 10000 nM |  | 239 °C |  |  |  | Nc1nc(N/N=C/c2ccc(C(F)(F)F)cc2C(F)(F)F)nc2c1ncn2[C@@H]1O[C@H](CO)[C@@H](O)[C@H]1O [Compound 3, (2R,3R,4S,5R)-2-{6-amino-2-{2-[(E)-2,4-bis(trifluoromethyl)benzylidene]hydrazino}-9H-purin-9-yl}-5-(hydroxymethyl)tetrahydrofuran-3,4-diol]
142 nM | 66.7 nM | 184 °C |  |  |  | Nc1nc(N/N=C/c2ccc(N(c3ccccc3)c3ccccc3)cc2)nc2c1ncn2[C@@H]1O[C@H](CO)[C@@H](O)[C@H]1O [Compound 4, (2R,3R,4S,5R)-2-{6-amino-2-{2-[(E)-4-(diphenylamino)benzylidene]hydrazino}-9H-purin-9-yl}-5-(hydroxymethyl)tetrahydrofuran-3,4-diol]
369 nM | 173 nM | 148 °C |  |  |  | Nc1nc(N/N=C/c2cccc(OCc3ccccc3)c2)nc2c1ncn2[C@@H]1O[C@H](CO)[C@@H](O)[C@H]1O [Compound 6, (2R,3R,4S,5R)-2-{6-amino-2-{2-[(E)-3-(benzyloxy)benzylidene] hydrazino}-9H-purin-9-yl}-5-(hydroxymethyl)tetrahydrofuran-3,4-diol]
1710 nM | 801 nM | 242 °C |  |  |  | Nc1nc(N/N=C/c2ccc(Cl)c(C(F)(F)F)c2)nc2c1ncn2[C@@H]1O[C@H](CO)[C@@H](O)[C@H]1O [Compound 7, (2R,3R,4S,5R)-2-{6-amino-2-{2-[(E)-4-chloro-3-(trifluoromethyl)benzylidene]hydrazino}-9H-purin-9-yl}-5-(hydroxymethyl)tetrahydrofuran-3,4-diol]
445 nM | 208 nM | 164 °C |  |  |  | Nc1nc(N/N=C/c2ccc(-c3ccccn3)cc2)nc2c1ncn2[C@@H]1O[C@H](CO)[C@@H](O)[C@H]1O [Compound 8, (2R,3R,4S,5R)-2-{6-amino-2-{2-[(E)-4-(pyridin-2-yl)benzylidene] hydrazino}-9H-purin-9-yl}-5-(hydroxymethyl)tetrahydrofuran-3,4-diol]
 |  | 234 °C | shown as hA2AAR agonists |  |  | Nc1nc(N/N=C/c2ccc(-c3ccccc3)cc2)nc2c1ncn2[C@@H]1O[C@H](CO)C(O)C1O (some centres unmarked) [Compound 9]
> 10000 nM |  | 174 °C |  |  |  | Nc1nc(N/N=C/c2ccc(N3CCCC3)cc2)nc2c1ncn2[C@@H]1O[C@H](CO)[C@@H](O)[C@H]1O [Compound 10, (2R,3R,4S,5R)-2-{6-amino-2-{2-[(E)-4-(pyrrolidin-1-yl)benzylidene]hydrazino}-9H-purin-9-yl}-5-(hydroxymethyl)tetrahydrofuran-3,4-diol]
131 nM | 61.3 nM | 260 °C |  |  |  | Nc1nc(N/N=C/c2ccc(C(F)(F)F)cc2)nc2c1ncn2[C@@H]1O[C@H](CO)[C@@H](O)[C@H]1O [Compound 11, (2R,3R,4S,5R)-2-{6-amino-2-{2-[(E)-4-(trifluoromethyl)benzylidene]hydrazino}-9H-purin-9-yl)-5-(hydroxymethyl)tetrahydrofuran-3,4-diol]
462 nM | 216 nM | 276 °C |  |  |  | Nc1nc(N/N=C/c2ccc(-n3ccnc3)cc2)nc2c1ncn2[C@@H]1O[C@H](CO)[C@@H](O)[C@H]1O [Compound 12, (2R,3R,4S,5R)-2-{2-{2-[(E)-4-(1H-imidazol-1-yl)benzylidene]hydrazino}-6-amino-9H-purin-9-yl}-5-(hydroxymethyl)tetrahydrofuran-3,4-diol]
479 nM |  | 218 °C |  |  | 224 nM | CCCOc1ccc(/C=N/Nc2nc(N)c3ncn([C@@H]4O[C@H](CO)C(O)C4O)c3n2)cc1 (stereo partly drawn) [Compound 13, (2R,3R,45,5R)-2-{6-amino-2-{2-[(E)-4-propoxybenzylidene]hydrazino}-9H-purine-9-yl}-5-(hydroxymethyl)tetrahydrofuran-3,4-diol]
 |  | 260 °C |  |  |  | N#Cc1ccccc1/C=N/Nc1nc(N)c2ncn([C@@H]3O[C@H](CO)C(O)C3O)c2n1 (some centres unmarked) [Compound 14]
3460 nM | 1620 nM | 198 °C |  |  |  | CCOc1cc(/C=N/Nc2nc(N)c3ncn([C@@H]4O[C@H](CO)[C@@H](O)[C@H]4O)c3n2)ccc1O [Compound 16, (2R,3R,4S,5R)-2-{6-amino-2-{2-[(E)-3-ethoxy-4-hydroxybenzylidene]hydrazino}-9H-purin-9-yl}-5-(hydroxymethyl)tetrahydrofuran-3,4-diol]
1710 nM | 800 nM | 186 °C |  |  |  | Nc1nc(N/N=C/c2ccc(N3CCOCC3)cc2)nc2c1ncn2[C@@H]1O[C@H](CO)[C@@H](O)[C@H]1O [Compound 17, (2R,3R,4S,5R)-2-{6-amino-2-{2-[(E)-4-morpholinobenzylidene]hydrazino}-9H-purin-9-yl}-5-(hydroxymethyl)tetrahydrofuran-3,4-diol]
> 10000 nM |  | 246 °C |  |  |  | COc1cc(/C=N/Nc2nc(N)c3ncn([C@@H]4O[C@H](CO)[C@@H](O)[C@H]4O)c3n2)cc(OC)c1OC [Compound 18, (2R,3R,4S,5R)-2-{6-amino-2-{2-[(E)-3,4,5-trimethoxybenzylidene]hydrazino}-9H-purin-9-yl}-5-(hydroxymethyl)tetrahydrofuran-3,4-diol]
216 nM | 101 nM | 146 °C |  |  |  | COc1cc(/C=N/Nc2nc(N)c3ncn([C@@H]4O[C@H](CO)[C@@H](O)[C@H]4O)c3n2)ccc1OCc1ccccc1 [Compound 19, (2R,3R,4S,5R)-2-{6-amino-2-{2-[(E)-4-(benzyloxy)-3-methoxybenzylidene]hydrazino}-9H-purin-9-yl}-5-(hydroxymethyl)tetrahydrofuran-3,4-diol]
